Structures can show the parent of a compound that is named as a salt.
Assays:
[1] = test system: JAK1-dependent STAT6 phosphorylation downstream of IL-13 stimulation in TF-1 human erythroleukemia cells; assay: JAK1 pathway assay in TF-1 cells (IL-13-pSTAT6, MSD); format: cell-based; details: Homo sapiens, TF-1, TF-1 cells, read-out: IL13-pSTAT6 EC50_TF-1
In short: (§1)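 BEAS-2B: 1 h, complete growth medium, 100,000 cells/well. TF-1: 30 min, serum-free OptiMEM after overnight GM-CSF starvation, 300,000 cells/well. EC50 reported.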

[2] = biological target: isolated recombinant JAK2 kinase domain (Homo sapiens (Human), UniProt O60674); assay: JAK2 enzyme assay (Caliper LabChip, peptide phosphorylation); format: biochemical; details: 25 μM ATP
[3] = test system: JAK1-dependent STAT6 phosphorylation downstream of IL-13 stimulation in BEAS-2B human bronchial epithelial cells; assay: JAK1 pathway assay in BEAS-2B cells (IL-13-pSTAT6, MSD); format: cell-based; details: read-out: IL13-pSTAT6 EC50 (uM)_BEAS-2B
In short: as §1

[4] = biological target: isolated recombinant JAK1 kinase domain (Homo sapiens (Human), UniProt P23458); assay: JAK1 enzyme assay (Caliper LabChip, peptide phosphorylation); format: biochemical; details: isolated recombinant JAK1 kinase domain, 25 μM ATP
Sequence of isolated recombinant JAK1 kinase domain (P23458 875-1153): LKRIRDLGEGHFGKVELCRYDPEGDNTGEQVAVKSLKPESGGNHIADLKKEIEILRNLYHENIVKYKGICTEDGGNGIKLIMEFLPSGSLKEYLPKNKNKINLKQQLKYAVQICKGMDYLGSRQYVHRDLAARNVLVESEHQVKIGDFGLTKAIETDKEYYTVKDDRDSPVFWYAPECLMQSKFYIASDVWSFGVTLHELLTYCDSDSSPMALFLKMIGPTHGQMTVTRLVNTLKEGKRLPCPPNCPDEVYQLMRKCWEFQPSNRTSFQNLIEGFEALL

Sequence of isolated recombinant JAK2 kinase domain (O60674 849-1124): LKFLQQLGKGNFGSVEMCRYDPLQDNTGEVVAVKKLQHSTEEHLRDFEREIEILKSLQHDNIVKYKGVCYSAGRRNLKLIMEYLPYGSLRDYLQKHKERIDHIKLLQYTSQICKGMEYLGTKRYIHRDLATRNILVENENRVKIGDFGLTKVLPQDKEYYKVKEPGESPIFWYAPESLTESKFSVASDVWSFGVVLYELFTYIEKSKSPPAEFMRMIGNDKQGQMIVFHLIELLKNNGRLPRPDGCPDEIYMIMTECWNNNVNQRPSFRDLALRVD

Row | SMILES | EC50 [1] | Ki [2] | EC50 [3] | Ki [4]
1 | CCOC(=O)CNCCn1cc(NC(=O)c2cnn3cccnc23)c(-c2cc(Cl)ccc2OC(F)F)n1 [Example 306, Ethyl 2-[(2-[3-[5-chloro-2-(difluoromethoxy)phenyl]-4-[pyrazolo[1,5-a]pyrimidine-3-amido]-1H-pyrazol-1-yl]ethyl)amino]acetate] | 6.2 nM | 0.54 nM | 0.0659 µM | 1.15 nM
2 | CN1CC[C@H]2[C@H](CCN2C(=O)Cn2cc(NC(=O)c3cnn4cccnc34)c(-c3cc(Cl)ccc3OC(F)F)n2)C1 [Example 48, N-[1-[2-[(3aR,7aS)-5-methyl-3,3a,4,6,7,7a-hexahydro-2H-pyrrolo[3,2-c]pyridin-1-yl]-2-oxo-ethyl]-3-[5-chloro-2-(difluoromethoxy)phenyl]pyrazol-4-yl]pyrazolo[1,5-a]pyrimidine-3-carboxamide] | 13.7 nM | 1.85 nM | 0.0594 µM | 0.94 nM
3 | CN(CCC#N)C1CCN(c2nc(-c3cc(Cl)ccc3OC(F)F)c(NC(=O)c3cnn4cccnc34)s2)CC1 [Example 189, Pyrazolo[1,5-a]pyrimidine-3-carboxylic acid (4-(5-chloro-2-difluoromethoxy-phenyl)-2-{4-[(2-cyano-ethyl)-methyl-amino]-piperidin-1-yl}-thiazol-5-yl)-amide] | 5.3 nM | 1.61 nM | 0.02 µM | 2.59 nM
4 | CNC(=O)CCCN1CCC(n2cc(NC(=O)c3c(N)nn4cccnc34)c(-c3cc(Cl)ccc3OC(F)F)n2)CC1 [Example 149, 2-amino-N-[3-[5-chloro-2-(difluoromethoxy)phenyl]-1-[1-[4-(methylamino)-4-oxo-butyl]-4-piperidyl]pyrazol-4-yl]pyrazolo[1,5-a]pyrimidine-3-carboxamide] | 8.3 nM | 0.2 nM | 0.0198 µM | 0.81 nM
5 | O=C(Nc1cn(CC(=O)N2CCN(CCO)CC2)nc1-c1cc(Cl)ccc1OC(F)F)c1cnn2cccnc12 [Example 228, N-[3-[5-chloro-2-(difluoromethoxy)phenyl]-1-[2-[4-(2-hydroxyethyl)piperazin-1-yl]-2-oxo-ethyl]pyrazol-4-yl]pyrazolo[1,5-a]pyrimidine-3-carboxamide] | 11.1 nM | 0.89 nM | 0.0655 µM | 0.47 nM
6 | O=C(Nc1cn(CC(=O)N2CCC(N(CCC(F)(F)F)Cc3ccccc3)CC2)nc1-c1cc(Cl)ccc1OC(F)F)c1cnn2cccnc12 [Example 118, N-[1-[2-[4-[benzyl(3,3,3-trifluoropropyl)amino]-1-piperidyl]-2-oxo-ethyl]-3-[5-chloro-2-(difluoromethoxy)phenyl]pyrazol-4-yl]pyrazolo[1,5-a]pyrimidine-3-carboxamide] | 100 nM | 4.45 nM | 0.303 µM | 2.57 nM
7 | CNC1CCN(C(=O)Cn2cc(NC(=O)c3cnn4cccnc34)c(-c3cc(Cl)ccc3OC(F)F)n2)CC1 [Example 83, N-[3-[5-chloro-2-(difluoromethoxy)phenyl]-1-[2-[4-(methylamino)-1-piperidyl]-2-oxo-ethyl]pyrazol-4-yl]pyrazolo[1,5-a]pyrimidine-3-carboxamide] | 42.3 nM | 1.59 nM | 0.143 µM | 1.07 nM
8 | O=C(Cn1cc(NC(=O)c2cnn3cccnc23)c(-c2cc(Cl)ccc2OC(F)F)n1)NCC1(CO)CC1 [Example 291, N-[3-[5-chloro-2-(difluoromethoxy)phenyl]-1-[2-[[1-(hydroxy-methyl)cyclopropyl]methylamino]-2-oxo-ethyl]pyrazol-4-yl]pyrazolo[1,5-a]pyrimidine-3-carboxamide] | 3.6 nM | 0.55 nM | 0.0317 µM | 0.54 nM
9 | CN(CCc1ccc(Cl)cc1)C1CCN(C(=O)Cn2cc(NC(=O)c3cnn4cccnc34)c(-c3cc(Cl)ccc3OC(F)F)n2)CC1 [Example 94, N-[3-[5-chloro-2-(difluoromethoxy)phenyl]-1-[2-[4-[2-(4-chlorophenyl)ethyl-methyl-amino]-1-piperidyl]-2-oxo-ethyl]pyrazol-4-yl]pyrazolo[1,5-a]pyrimidine-3-carboxamide] | 42.4 nM | 2.07 nM | 0.0931 µM | 1.2 nM
10 | CN(C(=O)Cn1cc(NC(=O)c2cnn3cccnc23)c(-c2cc(Cl)ccc2OC(F)F)n1)C1(CO)CC1 [Example 293] | 3 nM | 0.38 nM | 0.0081 µM | 0.29 nM
11 | Cc1ccc(OCCN(C)C2CCN(C(=O)Cn3cc(NC(=O)c4cnn5cccnc45)c(-c4cc(Cl)ccc4OC(F)F)n3)CC2)cc1 [Example 110, N-[3-[5-chloro-2-(difluoromethoxy)phenyl]-1-[2-[4-[methyl-[2-(4-methylphenoxy)ethyl]amino]-1-piperidyl]-2-oxo-ethyl]pyrazol-4-yl]pyrazolo[1,5-a]pyrimidine-3-carboxamide] | 8.9 nM | 2.03 nM | 0.0875 µM | 1.04 nM
12 | CN(C)C1CCN(c2nc(-c3cc(Cl)ccc3OC(F)F)c(NC(=O)c3cnn4cccnc34)s2)CC1 [Example 188, Pyrazolo[1,5-a]pyrimidine-3-carboxylic acid [4-(5-chloro-2-difluoromethoxy-phenyl)-2-(4-dimethylamino-piperidin-1-yl)-thiazol-5-yl]-amide] | 5.8 nM | – | 0.0349 µM | 1.26 nM
13 | C[N+](C)(CCCc1ccccc1)C1CCN(C(=O)Cn2cc(NC(=O)c3cnn4cccnc34)c(-c3cc(Cl)ccc3OC(F)F)n2)CC1 [Example 124, [1-[2-[3-[5-chloro-2-(difluoromethoxy)phenyl]-4-(pyrazolo[1,5-a]pyrimidine-3-carbonylamino)pyrazol-1-yl]acetyl]-4-piperidyl]-dimethyl-(3-phenylpropyl)ammonium] | 87.9 nM | – | 0.535 µM | –
14 | NC1CCN(C(=O)Cn2cc(NC(=O)c3cnn4cccnc34)c(-c3cc(Cl)ccc3OC(F)F)n2)CC1 [Example 66, N-[1-[2-(4-amino-1-piperidyl)-2-oxo-ethyl]-3-[5-chloro-2-(difluoromethoxy)phenyl]pyrazol-4-yl]pyrazolo[1,5-a]pyrimidine-3-carboxamide] | 35.6 nM | – | 0.335 µM | 0.58 nM
15 | COCCN1CCN(C(=O)Cn2cc(NC(=O)c3cnn4cccnc34)c(-c3cc(Cl)ccc3OC(F)F)n2)CC1 [Example 229, N-[3-[5-chloro-2-(difluoromethoxy)phenyl]-1-[2-[4-(2-methoxyethyl)piperazin-1-yl]-2-oxo-ethyl]pyrazol-4-yl]pyrazolo[1,5-a]pyrimidine-3-carboxamide] | 3.3 nM | – | 0.0516 µM | 0.38 nM
16 | O=C(Nc1cn(CC(=O)N2CCCCC2)nc1-c1cc(Cl)ccc1OC(F)F)c1cnn2cccnc12 [Example 308, N-[3-[5-chloro-2-(difluoromethoxy)phenyl]-1-[2-oxo-2-(1-piperidyl)ethyl]pyrazol-4-yl]pyrazolo[1,5-a]pyrimidine-3-carboxamide] | 1.5 nM | 0.55 nM | 0.0236 µM | –
17 | CN1CCCC2CN(C(=O)Cn3cc(NC(=O)c4cnn5cccnc45)c(-c4cc(Cl)ccc4OC(F)F)n3)CC21 (stereo not shown) [Example 440, N-(3-(5-chloro-2-(difluoromethoxy)phenyl)-1-(2-(1-methyl-octahydropyrrolo[3,4-b]pyridin-6-yl)-2-oxoethyl)-1H-pyrazol-4-yl)pyrazolo[1,5-a]pyrimidine-3-carboxamide] | – | 0.54 nM | 0.0068 µM | 0.46 nM
18 | O=C(Nc1cn(CC(=O)N2CCC(C(=O)OCCN3CCOCC3)CC2)nc1-c1cc(Cl)ccc1OC(F)F)c1cnn2cccnc12 [Example 336, 2-(morpholin-4-yl)ethyl 1-(2-[3-[5-chloro-2-(difluoromethoxy)phenyl]-4-[pyrazolo[1,5-a]pyrimidine-3-amido]-1H-pyrazol-1-yl]acetyl)piperidine-4-carboxylate] | – | 1.05 nM | 0.0145 µM | 0.49 nM
19 | O=C(Nc1cn(Cc2cn(C3CCNCC3)nn2)nc1-c1cc(Cl)ccc1OC(F)F)c1cnn2cccnc12 [Example 452, N-(3-(5-chloro-2-(difluoromethoxy)phenyl)-1-((1-(piperidin-4-yl)-1H-1,2,3-triazol-4-yl)methyl)-1H-pyrazol-4-yl)pyrazolo[1,5-a]pyrimidine-3-carboxamide] | – | 0.65 nM | 0.0809 µM | 0.71 nM
20 | COC(=O)C1(C)CCN(CCN2CCN(C(=O)Cn3cc(NC(=O)c4cnn5cccnc45)c(-c4cc(Cl)ccc4OC(F)F)n3)CC2)CC1 [Example 335, methyl 1-[2-[4-(2-[3-[5-chloro-2-(difluoromethoxy)phenyl]-4-[pyrazolo[1,5-a]pyrimidine-3-amido]-1H-pyrazol-1-yl]acetyl)piperazin-1-yl]ethyl]-4-methylpiperidine-4-carboxylate formate] | – | 2.22 nM | 0.0121 µM | 0.84 nM
21 | O=C(Nc1cn(CC(=O)N2C[C@@H]3CCN[C@@H]3C2)nc1-c1cc(Cl)ccc1OC(F)F)c1cnn2cccnc12 [Example 444, N-(3-(5-chloro-2-(difluoromethoxy)phenyl)-1-(2-((3aS,6aS)-hexahydropyrrolo[3,4-b]pyrrol-5(1H)-yl)-2-oxoethyl)-1H-pyrazol-4-yl)pyrazolo[1,5-a]pyrimidine-3-carboxamide] | – | 0.89 nM | 0.054 µM | 0.76 nM
22 | CC(C)(C)OC(=O)N1CC[C@H](O)[C@@H](n2cc(NC(=O)c3cnn4cccnc34)c(-c3cc(Cl)ccc3OC(F)F)n2)C1 (single isomer, unassigned) [Example 357] | – | 1.06 nM | 0.0216 µM | 1.22 nM
